Measurements published in PMC7356367, “Design, Synthesis, and Biological Evaluation of 8-Mercapto-3,7-Dihydro-1H-Purine-2,6-Diones as Potent Inhibitors of SIRT1, SIRT2, SIRT3, and SIRT5” (Molecules, 2020).

Experiments:
[1] = Stability in the assay buffer and activity assay by HPLC; conditions: overall statement
From the text: (§1) To examine the stability of the compound, we analyzed the solution sample of
Further, we determined the
(§2) compound in the assay buffer without SIRT3, and the compound after the
(§3) deacetylation catalyzed by SIRT3 by using HPLC.
(§4) To address whether SIRT3 might cause any
(§5) catalyzed by SIRT3 (Figure S3C and S3E).

[2] = molecular target: T1, SIRT2 (Homo sapiens, UniProt Q8IXJ6); assay: Fluorescent deacetylation assay, SIRT2
T1 sequence (Q8IXJ6 1-389): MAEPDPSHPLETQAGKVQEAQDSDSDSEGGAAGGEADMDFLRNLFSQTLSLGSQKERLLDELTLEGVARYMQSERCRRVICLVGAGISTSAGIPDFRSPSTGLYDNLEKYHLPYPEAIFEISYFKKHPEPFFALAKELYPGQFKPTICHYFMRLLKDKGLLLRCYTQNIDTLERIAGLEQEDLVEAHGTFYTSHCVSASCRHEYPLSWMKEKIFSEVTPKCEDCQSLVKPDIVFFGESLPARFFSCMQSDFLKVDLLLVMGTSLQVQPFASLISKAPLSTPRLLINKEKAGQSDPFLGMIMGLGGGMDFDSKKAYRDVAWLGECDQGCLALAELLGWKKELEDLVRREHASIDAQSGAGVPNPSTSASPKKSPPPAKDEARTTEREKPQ

[3] = molecular target: SIRT6 (Homo sapiens, UniProt Q8N6T7); assay: Fluorescent deacetylation assay, SIRT6
SIRT6, sequence (Q8N6T7 whole entry): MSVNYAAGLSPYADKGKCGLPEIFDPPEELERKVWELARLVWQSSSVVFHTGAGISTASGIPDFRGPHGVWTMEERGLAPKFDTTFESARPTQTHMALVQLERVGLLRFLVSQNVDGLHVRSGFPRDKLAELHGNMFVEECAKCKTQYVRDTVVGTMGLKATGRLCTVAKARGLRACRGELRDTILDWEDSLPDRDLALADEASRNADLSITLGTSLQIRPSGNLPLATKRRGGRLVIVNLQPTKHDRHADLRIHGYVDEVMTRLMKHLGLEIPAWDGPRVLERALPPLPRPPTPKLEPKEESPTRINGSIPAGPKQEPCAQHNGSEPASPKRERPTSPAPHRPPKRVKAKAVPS

[4] = molecular target: T2, SIRT5 (Homo sapiens, UniProt Q9NXA8); assay: Fluorescent deacylation assay (succinyl-peptide), SIRT5
T2 sequence (Q9NXA8 37-310): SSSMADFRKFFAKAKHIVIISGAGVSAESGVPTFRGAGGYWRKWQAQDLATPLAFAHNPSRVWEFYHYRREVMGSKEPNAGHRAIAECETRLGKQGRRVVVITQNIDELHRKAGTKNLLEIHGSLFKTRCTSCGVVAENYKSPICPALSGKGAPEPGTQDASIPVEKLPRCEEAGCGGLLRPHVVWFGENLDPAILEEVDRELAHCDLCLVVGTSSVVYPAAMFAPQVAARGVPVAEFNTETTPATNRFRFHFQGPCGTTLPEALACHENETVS

[5] = Stability of DMSO solution by mass spectrometry; conditions: nine months, refrigerator 4 °C
From the text: as §1
Further, we determined the
as §2, §3, §4, §5

[6] = system: SH-SY5Y cells; assay: MTT assay for toxicity; assay type: cell-based; conditions: 24 hours
Experimental: To evaluate the toxicity of the compounds, we carried out MTT assays on SH-SY5Y
cells incubated with various concentrations of compounds 4 and 15 for 24 hours. We […]

[7] = molecular target: T3, SIRT1 (Homo sapiens, UniProt Q96EB6); assay: Fluorescent deacetylation assay, SIRT1; assay type: biochemical; conditions: 0.8 μM SIRT1, 10 μM acetyl-peptide, 1.2 mM NAD+
T3 construct: Human SIRT1 (183-505-(GGGS)2-641-665); His6 with sumo-cleavage site (N); made in house; host or cells: E. coli BL21
T3 sequence (Q96EB6 with tags, fused parts or gaps): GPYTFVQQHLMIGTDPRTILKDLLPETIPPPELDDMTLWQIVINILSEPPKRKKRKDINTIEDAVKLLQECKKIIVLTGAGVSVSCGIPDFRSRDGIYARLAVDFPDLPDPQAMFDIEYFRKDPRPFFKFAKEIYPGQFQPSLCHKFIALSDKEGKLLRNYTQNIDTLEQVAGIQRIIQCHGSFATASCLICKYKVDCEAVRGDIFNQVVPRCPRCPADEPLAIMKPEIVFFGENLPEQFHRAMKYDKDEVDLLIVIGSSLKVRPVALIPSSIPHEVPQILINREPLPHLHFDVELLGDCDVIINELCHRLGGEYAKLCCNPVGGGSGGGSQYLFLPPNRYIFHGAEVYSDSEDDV
Experimental: All compounds were dissolved in 10 mM stock solution in DMSO. […] The fluorescence was measured using a microplate reader (SpectraMax M5, Molecular Devices, San Jose, CA, USA) with excitation at 320 nm and emission at 420 nm. All reactions were done in triplicate.
IC50 were determined for other sirtuins using the same assay as for SIRT3.

[8] = molecular target: T4, SIRT3 (Homo sapiens, UniProt Q9NTG7); assay: Fluorescent deacetylation assay with internally quenched acetyl peptide and trypsin development, SIRT3
T4 sequence (Q9NTG7 118-399): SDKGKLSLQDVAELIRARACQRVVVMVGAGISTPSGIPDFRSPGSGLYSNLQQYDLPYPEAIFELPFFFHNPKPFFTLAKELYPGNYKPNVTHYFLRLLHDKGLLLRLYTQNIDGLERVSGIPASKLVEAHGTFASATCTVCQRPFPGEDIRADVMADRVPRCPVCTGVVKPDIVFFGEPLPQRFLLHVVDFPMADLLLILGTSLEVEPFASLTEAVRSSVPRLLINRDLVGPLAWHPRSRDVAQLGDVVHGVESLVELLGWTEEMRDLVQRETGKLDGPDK
From the text: An internally quenched fluorescent peptide (sequence: Abz-GVLKAcAYNO2GV-NH2; Abz: 2-aminobenzoyl; KAc, acetyl lysine; YNO2, 3-nitro-L-tyrosine) was used as the substrate [24]. After deacetylation by SIRT3, the substrate was hydrolyzed by trypsin to produce a fluorescent Abz-peptide (sequence: Abz-GVLK), which can be quantified by measuring the fluorescence of Abz at 420 nm with the excitation wavelength of 320 nm (Figure 2A).

[9] = system: SIRT2; conditions: Figure 1, reported sirtuin inhibitors; cited from earlier work
[10] = system: SIRT1; conditions: Figure 1, reported sirtuin inhibitors; cited from earlier work

Row | Compound | IC50 [2] [µM] | IC50 [3] [µM] | IC50 [4] [µM] | melting point [°C] | IC50 [7] [µM] | IC50 [8] [µM] | other results
1 | CCn1c(=O)c2[nH]c(SSc3nc4c([nH]3)c(=O)n(CC)c(=O)n4CC)nc2n(CC)c1=O [Compound 1, 8,8′-Disulfanediylbis(1,3-diethyl-3,7-dihydro-1H-purine-2,6-dione)] | 1.17 ± 0.04 | 116 ± 6.2 | 0.42 ± 0.01 | – | – | – | Stability in the activity assays [1]: stable in the activity assays; Stability in DMSO [5]: remains stable
2 | CCCn1c(=O)c2[nH]c(SSc3nc4c([nH]3)c(=O)n(CCC)c(=O)n4CCC)nc2n(CCC)c1=O [Compound 4, 8,8’-Disulfanediylbis(1,3-dipropyl-3,7-dihydro-1H-purine-2,6-dione)] | 1.19 ± 0.06 | 129 ± 16.1 | 0.39 ± 0.03 | 241 to 243 | – | – | Toxicity (MTT) at 50 μM [6]: displayed toxicity; Toxicity (MTT) at concentrations up to 20 μM [6]: nontoxic
3 | CCn1c(=O)n(CC(C)C)c(=O)c2[nH]c(SSc3nc4c([nH]3)c(=O)n(CC(C)C)c(=O)n4CC)nc21 [Compound 12, 8,8’-Disulfanediylbis(3-ethyl-1-isobutyl-3,7-dihydro-1H-purine-2,6-dione)] | 4.86 ± 0.08 | 297 ± 11.3 | 1.51 ± 0.1 | 240 to 242 | 0.43 ± 0.03 | 1.77 ± 0.05 | –
4 | CCn1c(=O)n(CC2CCOCC2)c(=O)c2[nH]c(SSc3nc4c([nH]3)c(=O)n(CC3CCOCC3)c(=O)n4CC)nc21 [Compound 13, 8,8’-Disulfanediylbis(3-ethyl-1-((tetrahydro-2H-pyran-4-yl)methyl)-3,7-dihydro-1H-purine-2,6-dione)] | 2.25 ± 0.12 | 156 ± 6.5 | 0.5 ± 0.01 | 229 to 231 | – | – | –
5 | CCn1c(=O)n(CC2CCCO2)c(=O)c2[nH]c(SSc3nc4c([nH]3)c(=O)n(CC3CCCO3)c(=O)n4CC)nc21 (stereo not drawn) [Compound 14, 8,8’-Disulfanediylbis(3-ethyl-1-((tetrahydrofuran-2-yl)methyl)-3,7-dihydro-1H-purine-2,6-dione)] | 1.62 ± 0.05 | 127 ± 10.2 | 0.54 ± 0.02 | 166 to 168 | 0.15 ± 0.02 | 0.69 ± 0.12 | Fold enhanced activity compared to compound 12 (SIRT3) ([8]; relative to compound 12): 2.5 fold
6 | CCn1c(=O)n(CCc2ccccc2)c(=O)c2[nH]c(SSc3nc4c([nH]3)c(=O)n(CCc3ccccc3)c(=O)n4CC)nc21 [Compound 15, 8,8’-Disulfanediylbis(3-ethyl-1-phenethyl-3,7-dihydro-1H-purine-2,6-dione)] | 1.35 ± 0.05 | 103 ± 6.3 | 0.45 ± 0.01 | 225 to 227 | – | – | Stability in the activity assays [1]: stable; Toxicity (MTT) at 50 μM [6]: displayed toxicity; Toxicity (MTT) at concentrations up to 20 μM [6]: nontoxic
7 | CCn1c(=O)n(CCc2ccc(F)cc2)c(=O)c2[nH]c(SSc3nc4c([nH]3)c(=O)n(CCc3ccc(F)cc3)c(=O)n4CC)nc21 [Compound 16, 8,8’-Disulfanediylbis(3-ethyl-1-(4-fluorophenethyl)-3,7-dihydro-1H-purine-2,6-dione)] | 2.03 ± 0.04 | 111 ± 2.6 | 0.84 ± 0.08 | 216 to 218 | 0.19 ± 0.01 | 0.46 ± 0.04 | –
8 | CCn1c(=O)n(CCc2ccc(NC(=O)OC(C)(C)C)cc2)c(=O)c2[nH]c(SSc3nc4c([nH]3)c(=O)n(CCc3ccc(NC(=O)OC(C)(C)C)cc3)c(=O)n4CC)nc21 [Compound 17, di-tert-Butyl(((Disulfanediylbis(3-ethyl-2,6-dioxo-2,3,6,7-tetrahydro-1H-purine-8,1-diyl))bis(ethane-2,1-diyl))bis(4,1-phenylene))dicarbamate] | 2.19 ± 0.08 | 128 ± 4.1 | 1 ± 0.03 | 168 to 171 | 0.41 ± 0.04 | 1.15 ± 0.08 | –
9 | CCn1c(=O)n(CCc2ccc(OC)cc2)c(=O)c2[nH]c(SSc3nc4c([nH]3)c(=O)n(CCc3ccc(OC)cc3)c(=O)n4CC)nc21 [Compound 18, 8,8’-Disulfanediylbis(3-ethyl-1-(4-methoxyphenethyl)-3,7-dihydro-1H-purine-2,6-dione)] | 2.16 ± 0.08 | 102 ± 9.1 | – | 216 to 219 | – | – | –
10 | CCn1c(=O)n(CCC(=O)Nc2cccc(C(F)(F)F)c2)c(=O)c2[nH]c(SSc3nc4c([nH]3)c(=O)n(CCC(=O)Nc3cccc(C(F)(F)F)c3)c(=O)n4CC)nc21 [Compound 19, 3,3’-(Disulfanediylbis(3-ethyl-2,6-dioxo-2,3,6,7-tetrahydro-1H-purine-8,1-diyl))bis(N-(3-(trifluoromethyl)phenyl)propanamide)] | 9.44 ± 0.19 | 452 ± 9.8 | 26.1 ± 3.15 | 174 to 175 | 1.87 ± 0.04 | 8.52 ± 0.22 | Fold reduced inhibitory activity compared with 15 (SIRT3) ([8]; relative to compound 15): 23 fold
11 | CCn1c(=O)n(CCc2ccc(N)cc2)c(=O)c2[nH]c(SSc3nc4c([nH]3)c(=O)n(CCc3ccc(N)cc3)c(=O)n4CC)nc21 [Compound 20, 8,8’-Disulfanediylbis(1-(4-aminophenethyl)-3-ethyl-3,7-dihydro-1H-purine-2,6-dione)] | 4.61 ± 0.13 | 210 ± 5.9 | 0.92 ± 0.04 | – | 0.49 ± 0.01 | 0.97 ± 0.06 | –
12 | CS(=O)(=O)NCCC1CCN(c2ncnc3cc(C(N)=O)sc23)CC1 [ELT-31, reference compound] | 0.12 ± 0.01 | 462 ± 14.9 | > 500 | – | – | – | –
14 | CC(C(=O)Nc1cccc(/N=C/c2c(O)ccc3ccccc23)c1)c1ccccc1 (stereo not drawn) [salermide] | – | – | – | – | – | – | IC50 [9]: 45 µM; IC50 [10]: 76 µM
15 | Cc1ccc(C(=O)Nc2ccc(S(=O)(=O)O)c3cc(S(=O)(=O)O)cc(S(=O)(=O)O)c23)cc1NC(=O)c1cccc(NC(=O)Nc2cccc(C(=O)Nc3cc(C(=O)Nc4ccc(S(=O)(=O)O)c5cc(S(=O)(=O)O)cc(S(=O)(=O)O)c45)ccc3C)c2)c1 [suramin] | – | – | – | – | – | – | IC50 [9]: 1.2 µM
